{"source": "patent US6355677B1", "about": "“Adrenoleukodystrophy treatments and drug screening” (The Johns Hopkins University, priority 1998, dated 2002)", "key": {"[1]": {"conditions": "used for many years in patients; cited from earlier work"}, "[2]": {"system": "Pex11α", "assay": "Semi-quantitative RT-PCR, mouse primary fibroblasts", "type": "cell-based", "conditions": "normal or X-ALD mouse fibroblasts, 10 day exposure to 5 mM; data not shown", "procedure": "Total RNA from tissue culture cells (10^6-10^7 cells/sample) was isolated using TRizol Reagent™ (Life Technologies), treated with DNase I (100-200 units in 40 mM HC, 10mM NaC, 6 mM MgCl2, pH 7.3), incubated at 37° C. for 30 min, extracted with pheno/chloroform, and precipitated with isopropanol. cDNA was generated using MMLV reverse transcriptase (RT) (Life Technologies). PCR was done in the linear range of amplification (determined for each primerpair-cDNA combination). For each cDNA sample, a ‘cocktail’ was prepared, containing PCR buffer (Promega), 200 µM of each DNTP, 1.5 mM MgCl2, 250 ng cDNA, 0.25 U of Taq polymerase (Promega) and […]. The ‘cocktail’ was divided into separate tubes containing cDNA specific primers.\nThe PCR primers used are listed below. In the parentheses, h indicates human and m, mouse; this is followed by the gene name, product size and annealing temperature. For primer sequences, F is forward and R is reverse. […]"}, "[3]": {"system": "human X-ALD primary fibroblasts", "assay": "VLCFA (C24:0 and C26:0) levels in cultured cells, capillary GC", "type": "cell-based", "conditions": "for C24:0 level, Treated / C26:0 Percent Correction / C26:0 level, Treated / C24:0 Percent Correction: X-ALD human primary fibroblasts", "procedure": "(§1) Cell lines derived from X-ALD patients and X-ALD mice were grown in MEM (fibroblasts) or RPMI (lymphoblastoid cells) supplemented with fetal calf serum (10%), penicillin (100 U/ml), streptomycin (100 U/ml) and glutamine (2 mM). […] Cells in the second flask were grown without drug for the same length of time and served as controls. The media were changed every 3-4 days.\n(§2) For VLCFA measurements, total lipids were extracted, converted to methyl esters, purified by TLC and subjected to capillary GC analysis as described. Duplicate assays were set up independently and were assayed on different days. C24:0 β-oxidation activity of human and mouse fibroblasts and human lymphoblastoid cells was determined by measuring their capacity to degrade [1-^14C]-C24:0 fatty acid (American Radiolabeled Chemicals, St. Louis, Mo.) to water-soluble products as described. Phytanic acid oxidation was measured as described. Cells were incubated with [2,3-^3H]-phytanic acid for 24 hours, and the release of ^3H-H2O to the aqueous medium was determined (activity in pmol/hr per mg protein)."}, "[4]": {"system": "mouse X-ALD primary fibroblasts", "assay": "VLCFA (C24:0 and C26:0) levels in cultured cells, capillary GC", "type": "cell-based", "conditions": "5 mM; for C24:0 Percent Correction / C24:0 level, Treated / C26:0 Percent Correction / C26:0 level, Treated: X-ALD mouse primary fibroblasts", "procedure": "as §1, §2"}, "[5]": {"system": "human primary fibroblasts", "assay": "Peroxisome counting by anti-SKL (PTS1) immunofluorescence", "type": "cell-based", "conditions": "5 mM", "from_the_text": "Peroxisomes were made visible with immunofluorescence using a polyclonal antibody to the C-terminal tripeptide (SKL) peroxisome targeting signal 1 (PTS1), which is present in most peroxisomal matrix proteins. […] We counted the peroxisomes after 10 days of treatment (Table 3). Slides were scanned visually and cells categorized as having low, medium or high numbers of peroxisomes. For each cell line, the number of peroxisomes is the mean of three ‘low’, four ‘medium’ and three ‘high’ cells (Table 3). There was no difference between control cells and X-ALD cells in either the number of peroxisomes per cell or in the response to 4-PBA. […] The 2.4-fold increase in the number of peroxisomes per cell was statistically significant (P<0.0000001, two-tailed Student's t-test). Peroxisome numbers obtained with an antibody against a peroxisomal membrane protein (Pex14p) gave similar results (data not shown).\nThe anti-SKL (PTSI) antibody was a gift from S. Gould and the anti-Pex11α antibody was a gift from S. Mihalik. To count peroxisomes, we photographed immunofluorescence-stained cells after focusing on the cell nucleus, and determined the peroxisome number per cell with the aid of a colon counter after projecting the slides to enlarge the image."}, "[6]": {"system": "mouse primary fibroblasts", "assay": "Toxicity in cultured cells", "type": "cell-based", "conditions": "data not shown", "from_the_text": "(§3) The genotypes of the X-ALD patients included midssense, nonsense, ftame shift and deletion mutations and all of the main clinical phenotypes."}, "[7]": {"system": "human primary fibroblasts", "assay": "Toxicity in cultured cells", "type": "cell-based", "conditions": "data not shown", "from_the_text": "as §3"}}}
{"compound": "O=C(O)CCCc1ccccc1", "note": "[4-PBA, 4-Phenyl butyrate]", "values": [{"measurement": "Side effects", "setting": "[1]", "value": "few, if any, side effects"}, {"measurement": "Pex11α transcripts", "setting": "[2]", "value": "undetectable"}, {"measurement": "Time of treatment until C24:0 levels were normalized", "setting": "[3]; 5 mM, human X-ALD fibroblasts", "value": "≤ 10", "unit": "days"}, {"measurement": "C24:0 level, Treated", "setting": "[3]; 5 mM, exposure 1 day", "value": "2.65 ± 0.36% of total fatty acids"}, {"measurement": "C26:0 Percent Correction", "setting": "[3]; 5 mM, exposure 1 day", "value": 2, "unit": "%"}, {"measurement": "C26:0 level, Treated", "setting": "[3]; 5 mM, exposure 1 day", "value": "0.51 ± 0.14% of total fatty acids"}, {"measurement": "C24:0 Percent Correction", "setting": "[3]; 5 mM, exposure 1 day, untreated X-ALD 0%, normal 100%", "value": "−1", "unit": "%"}, {"measurement": "C24:0 Percent Correction", "setting": "[3]; 5 mM, exposure 6 days", "value": 81, "unit": "%"}, {"measurement": "C24:0 level, Treated", "setting": "[3]; 5 mM, exposure 6 days", "value": "1.82 ± 0.28% of total fatty acids"}, {"measurement": "C26:0 Percent Correction", "setting": "[3]; 5 mM, exposure 6 days", "value": 26, "unit": "%"}, {"measurement": "C26:0 level, Treated", "setting": "[3]; 5 mM, exposure 6 days", "value": "0.41 ± 0.04% of total fatty acids"}, {"measurement": "C24:0 Percent Correction", "setting": "[3]; 5 mM, exposure 12 days", "value": 155, "unit": "%"}, {"measurement": "C24:0 level, Treated", "setting": "[3]; 5 mM, exposure 12 days", "value": "1.43 ± 0.34% of total fatty acids"}, {"measurement": "C26:0 Percent Correction", "setting": "[3]; 5 mM, exposure 12 days", "value": 33, "unit": "%"}, {"measurement": "C26:0 level, Treated", "setting": "[3]; 5 mM, exposure 12 days", "value": "0.31 ± 0.06% of total fatty acids"}, {"measurement": "C24:0 Percent Correction", "setting": "[3]; 5 mM, exposure 16 days", "value": 96, "unit": "%"}, {"measurement": "C24:0 level, Treated", "setting": "[3]; 5 mM, exposure 16 days", "value": "1.69 ± 0.27% of total fatty acids"}, {"measurement": "C26:0 Percent Correction", "setting": "[3]; 5 mM, exposure 16 days", "value": 38, "unit": "%"}, {"measurement": "C26:0 level, Treated", "setting": "[3]; 5 mM, exposure 16 days", "value": "0.28 ± 0.03% of total fatty acids"}, {"measurement": "C24:0 Percent Correction", "setting": "[3]; 5 mM, exposure 22 days", "value": 128, "unit": "%"}, {"measurement": "C24:0 level, Treated", "setting": "[3]; 5 mM, exposure 22 days", "value": "1.52 ± 0.14% of total fatty acids"}, {"measurement": "C26:0 Percent Correction", "setting": "[3]; 5 mM, exposure 22 days", "value": 47, "unit": "%"}, {"measurement": "C26:0 level, Treated", "setting": "[3]; 5 mM, exposure 22 days", "value": "0.27 ± 0.04% of total fatty acids"}, {"measurement": "Effect on VLCFA levels over concentration range", "setting": "[3]; between 1 mM and 5 mM, data not shown", "value": "dose-dependent decrease"}, {"measurement": "Time of treatment until C24:0 and C26:0 levels were normalized", "setting": "[4]; mouse fibroblasts", "value": "≤ 10", "unit": "days"}, {"measurement": "C24:0 Percent Correction", "setting": "[4]; exposure 5 days", "value": 115, "unit": "%"}, {"measurement": "C24:0 level, Treated", "setting": "[4]; exposure 5 days", "value": "1.10 ± 0.15% of total fatty acids"}, {"measurement": "C26:0 Percent Correction", "setting": "[4]; exposure 5 days", "value": 92, "unit": "%"}, {"measurement": "C26:0 level, Treated", "setting": "[4]; exposure 5 days", "value": "0.07 ± 0.03% of total fatty acids"}, {"measurement": "C24:0 Percent Correction", "setting": "[4]; exposure 9 days", "value": 152, "unit": "%"}, {"measurement": "C24:0 level, Treated", "setting": "[4]; exposure 9 days", "value": "0.87 ± 0.04% of total fatty acids"}, {"measurement": "C26:0 Percent Correction", "setting": "[4]; exposure 9 days", "value": 100, "unit": "%"}, {"measurement": "C26:0 level, Treated", "setting": "[4]; exposure 9 days", "value": "0.05 ± 0.01% of total fatty acids"}, {"measurement": "Increase in number of peroxisomes per cell", "setting": "[5]; 10 days", "value": 2.4, "unit": "fold"}, {"measurement": "Peroxisomes per cell after exposure", "setting": "[5]; 10 days, five X-ALD and four control cell lines combined, 416±27 before exposure", "value": "1014±108", "unit": "peroxisomes per cell"}, {"measurement": "Increase in peroxisome number", "setting": "[5]; human X-ALD primary fibroblasts, 8 days", "value": "approximately twofold"}, {"measurement": "Toxic concentration", "setting": "[6]", "value": "exceeding 7.5 mM"}, {"measurement": "Toxic concentration", "setting": "[7]", "value": "exceeding 7.5 mM"}]}
